pIC50: −log10 of the molar value.

In general, pIC50 refers to −log10 of the IC50, conventionally taken in molar units.

One series has as its system PDGF-R. Put plainly: PDGF-R autophosphorylation, T98G glioblastoma cells. The note with it: 200, 500, 1000 mM; 20 ng/ml PDGF-BB. The class given is cell-based, human. The method, then: Proteins were then separated by SDS-polyacrylamide gel electrophoresis (PAGE). Proteins containing phosphorylated tyrosine were identified by western blotting with an anti-phosphotyrosine antibody. The level of phosphorylated tyrosine was determined by quantitating the amount of bound anti-phosphotyrosine. Quantitation was carried out by peak area integration using a Molecular Dynamics Computing Densitometer (Model 300S), and Image Quant v3.0 software (Molecule Dynamics). Data were expressed as relative peak.intensity (phosphorylation of a receptor divided by the total amount of phosphorylated tyrosine).
T98G cells were plated in MCDB105 medium containing 2% FBS and incubated for 24 hours at 37° C. […] The cells were then treated with ligand for 10 minutes (20 ng/ml PDGF-BB or 50 ng/ml EGF). The cells were lysed and the level of phosphorylated receptor was quantitated as described in Example 1.

Series [1] has as its system ovarian carcinoma primary tumor cells. The experiment in a line: Growth of primary tumor cells from ovarian carcinoma patients. It counts as cell-based, human. Further details: tumor cell growth: dose or concentration left out as unconfirmed. The protocol:
Viable tumors were placed into medium by the pathologist at the referring institution immediately after surgery, and shipped to Oncotech by overnight delivery. As soon as a tumor was received, a portion was fixed in formalin for sectioning and the remainder trimmed of necrotic, connective and adipose tissues. All tumor manipulations were performed aseptically. The remaining tumor was placed into a Petri dish containing 5 mL of medium (RPMI 1640 supplemented with 10% FBS, 100 IU/mL penicillin, […] streptomycin and L-glutamine) and disaggregated mechanically with scissors into pieces 2 mm or smaller. […]
After enzymatic dispersion into a near single-cell suspension, tumor cells were filtered through nylon mesh, washed in medium, suspended in soft agarose (0.12%) and plated at approximately 20,000 cells per well onto an agarose underlayer (0.4%) in 24-well plates. […] After the appropriate labeling period, tissue culture plates were heated at 60° C. to melt the agarose, the cells harvested with a micro-harvester onto glass fiber filters and the radioactivity determined. Percent inhibition (PCI) was determined using the formula: PCI=1-(CPM treatment group […] CPM control group). Determinations of control group proliferation were performed in quadruplicate, while treatment group proliferation was determined in triplicate. […]

In the next series the test system is C6 cells. Put plainly: Intracerebral C6 tumor, athymic mice, survival. The class given is in vivo, rat. The following applies: IC C6, athymic mice. The protocol:
FIG. 4. In two separate experiments, C6 cells (1×10^5 cells in 4 μL) were implanted into the cerebrum of BALB/c, nu/nu mice. […] V=vehicle control. n=8 to 12 (Expt #1), or 5 (Expt #2) animals per group. * P<0.00001; ** P<0.002; *** P<0.02 compared to vehicle control.
For the mouse IC model, rat C6 glioma cells were harvested and suspended in sterile PBS at a concentration of 2.5×10^7 cells/mL and placed on ice. Cells were implanted into BALB/c, nu/nu mice in the following manner: the frontoparietal scalps of mice were shaved with animal clippers if necessary before swabbing with 70% ethanol. Animals were anesthetized with isofluorane and the needle was inserted through the skull into the left hemisphere of the brain. Cells were dispensed from Hamilton Gas-tight Syringes using 30 gauge 1/2 inch needles fitted with sleeves that allowed only a 3 mm penetration. A repeater dispenser was used for accurate delivery of 4 μL of cell suspension.

Series [2] in a line: Ex vivo conversion of A10 to B11 in rat plasma. The protocol:
Plasma was prepared and frozen in liquid nitrogen. Tissues and organs were resected and immediately frozen in liquid nitrogen. After the addition of an internal standard, plasma samples were acidified with HCl and extracted with acetonitrile. The acetonitrile fraction was evaporated to dryness in a vacuum centrifuge with heating and redissolved in methanol. Tissue and organ samples were homogenized according to the weight ratio of 1:5 (w:v) in 50 mM Tris-HCl, pH 7.4, at 20,000 rev/min, using a tissue homogenizer (Brinkmann Polytron Model PT3000). After the addition of an internal standard, the homogenate was acidified with HCl and then extracted with acetonitrile. The acetonitrile fraction was then extracted with an equal volume of diethyl ether. The ether fraction was evaporated to dryness in a vacuum centrifuge with heating and redissolved in methanol.
Samples for HPLC analysis were injected onto a Hewlett Packard Hypersil 5-μm C18 cartridge column (100×4.6 mm). The mobile phase was methanol:35 mM KH2 PO4 (pH 4.5) 55:45 containing 4 mM triethylamine. The flow rate was 1.2 mL/min. The compounds were monitored by UV absorption at 254 nm using a Hewlett-Packard diode-array detector (HP Model 1090). Plasma and tissue concentrations were determined from standard curves using peak area for quantitation. […]

Series [3] is described as follows: Effects of A10 on body weight and organs. The note with it: 20 mg/kg/day, 100 day period. The class given is in vivo, mouse. The protocol:
Vehicle control animals received IP administration of 100 μL PBTE:D5W (1:1, v:v) every day for 101 days, and untreated control animals received no treatments. There were eight animals in each group. Weights were measured on day 0 (one day prior to drug administration) and two times/week until experiment termination. The percent weight change was calculated as mean weight at each determination as compared to the mean weight on day 0.
However, after several weeks, the animals gained weight at a rate similar to untreated or vehicle-treated animals.

The next series relates to RR-SRC peptide substrate. The following applies: cited from earlier work.

For the compound `Cc1oncc1C(=O)Nc1ccc(C(F)(F)F)cc1` [Compound A10, 5-methylisoxazole-4 carboxylic acid-(4-trifluromethyl)-anilide], the “autophosphorylation of PDGF-R by PDGF” value in the series with PDGF-R is reported as “inhibited autophosphorylation of PDGF-R by PDGF”. Besides, the tumor cell growth result in series [1] is “tumor cell growth decreased for both types of tumors”. In addition, the negative-log IC50 (pIC50) in series [1] (Homo sapiens, range over six patients, read-out: IC50, ovarian tumors) was 3.85 to 4.70. For the same compound, in the series on C6 cells, the average survival time result is “significantly increased compared to controls”. Further, the “time of complete conversion to B11” value in series [2] (37° C., rat plasma) was at most 2 h. Further, the “conversion to B11 in heat-inactivated plasma” value in series [2] (rat, 15 min at 60° C.) is recorded as “does not occur”. In addition, the mortality entry in series [3] is “no mortality was observed”. For the same compound, in the series with RR-SRC peptide substrate, the “tyrosine phosphorylation of the RR-SRC peptide substrate” value is listed as “dose dependently, inhibited”.

These data come from US6331555A, “Treatment of platelet derived growth factor related disorders such as cancers” (priority 1999, dated 2001).
